“Also recorded” adds a separate entry of the source. Where two headings read alike, the source gives them in different places. Where only a bound is given, the exact number is not on record here.

These results are taken from PMC9029746, “Discovery of Azaindolin-2-One as a Dual Inhibitor of GSK3β and Tau Aggregation with Potential Neuroprotective Activity” (Pharmaceuticals, 2022).

Assay [1] relates to GSK3β. The settings on record: cited from earlier work.
Assay [2] addresses T1, human recombinant GSK3β (Homo sapiens, UniProt P49841).
T1 construct: purchased Promega Corporation, Madison, WI, USA (GSK3β Kinase Enzyme System)
Briefly: GSK3β inhibition assay (GSK3β Kinase Enzyme System, ADP-Glo Kinase Assay). Format: biochemical. The settings on record: for inhibition at 10 µM: read-out: percentage inhibition of GSK3β. Here is the method:
Screening of GSK3β inhibition activity for our new library was conducted using the […] luminescence assay to determine how much ATP is reduced after a kinase reaction.
According to the manufacturer’s protocol, the assay was conducted using GSK3β Kinase Enzyme System and ADP-Glo Kinase Assay (Promega Corporation, Madison, WI, USA) in 384-well plates. The kinase reaction was performed at room temperature using 2 ng/μL of human recombinant GSK3β, 0.2 μg/μL of GSK3 substrate ([…] (pS) EDEEE; amino acids 636–661), and 25 μM ATP in 4X kinase buffer containing 50 μM DTT. The compounds were added to enzyme solution and incubated for 2 h at room temperature. Then, kinase activity was quantified using the ADP-Glo Kinase Assay as previously described.
On the technique in general: In ADP-Glo the light output rises with the ADP produced.

Assay [3] deals with beta-amyloid (Aβ). On the set-up: method as in PMID 17761424. The following applies: cited from earlier work.
The target of assay [4] is tau fibrils. Set-up: method as in PMID 17761424. The settings on record: cited from earlier work.
Assay [5] concerns the target alpha-synuclein (α-syn). On the set-up: method as in PMID 17761424. The following applies: cited from earlier work.
Assay [6] deals with T2, tau 2N4R isoform carrying P301L mutation (Homo sapiens, UniProt P10636, P618L).
T2 construct: host or cells: HeLa cells
T2 sequence (P10636 1-441 isoform P10636-8 P301L): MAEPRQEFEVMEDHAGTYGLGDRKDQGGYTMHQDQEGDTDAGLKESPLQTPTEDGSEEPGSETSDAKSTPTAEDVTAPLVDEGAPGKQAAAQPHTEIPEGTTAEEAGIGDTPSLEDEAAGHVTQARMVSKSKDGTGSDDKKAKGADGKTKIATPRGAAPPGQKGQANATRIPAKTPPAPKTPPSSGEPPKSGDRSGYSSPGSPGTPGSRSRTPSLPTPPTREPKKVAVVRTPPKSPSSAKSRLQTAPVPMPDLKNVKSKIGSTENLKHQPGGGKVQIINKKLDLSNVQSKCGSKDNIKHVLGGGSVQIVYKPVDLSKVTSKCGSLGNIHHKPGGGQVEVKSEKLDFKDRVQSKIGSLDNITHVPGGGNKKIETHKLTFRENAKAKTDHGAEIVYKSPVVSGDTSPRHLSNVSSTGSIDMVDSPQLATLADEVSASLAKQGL
In words: Tau aggregation inhibition in a cell model of tauopathy (Tau Aggregation Assay Kit, HeLa cells). Format: cell-based. The following applies: for anti-tau aggregation effect: Hela cells, seed+; for inhibitory activity against tau aggregation: 1, 3, 10, and 30 µM overall. Here is the method: Aggregation of Tau is observed using Hela cells transduced with the expression vector of tau 2N4R isoform carrying P301L mutation and fibrils of tau protein with P301L mutation as seed. We tested the anti-aggregation effects of (E)-2f and 3a at four different concentrations, namely (1 µM, 3 µM, 10 µM, 30 µM), the measurements combined with negative seed (negative control = normal aggregation level), and positive seed (positive control = AD aggregation levels). In other words, seed— and + indicate the absence and presence of fibrils of tau protein with P301L mutation as seed, respectively.
Figure 9 Anti-tau aggregation activity of compounds (E)-2f and 3a at 1, 3, 10, and 30 µM concentrations. (A) Tau proteins were stained with green fluorescence in HeLa cells transfected with the expression vector of tau 2N4R isoform carrying P301L mutation and incubated with the compounds. Microscopic observation was performed, and photos were shown on a 100 µm scale. Seed negative (seed−) and seed positive (seed+) indicate the absence and presence of fibrils of tau protein with P301L mutation, respectively. (B) Relative green spots per area (%) after exposure of Hela cells to compounds (E)-2f and 3a are compared to seed positive (seed+ = 100%). ImageJ counted more than 100 spots in the same area in each sample. *: denotes significant difference from control (seed+) at p < 0.05, **: denotes significant difference from control (seed+) at p < 0.01.
According to the manufacturer’s protocol, the assay was performed using Tau Aggregation Assay Kit (Cosmo Bio, Tokyo, Japan [catalog number: TAU01]). Briefly, HeLa cells were transfected with pCMV-Tau(2N4R)-P301L (20 ng) using Lipofectamine 3000 (ThermoFisher Scientific, Waltham, MA, USA) and treated with F-Tau (RD)-P301L (fibrils of tau protein with P301L mutation as seed, included in the assay kit). Drugs were added after 6 h, and the cells were incubated for 1 day. Next, immunostaining was performed basically as previously described. Tau proteins were stained with green fluorescence. In this staining, a TAU antibody (Proteintech, Rosemont, IL, USA [catalog number: 10274-1-AP]) was used as the first antibody, and goat anti-rabbit IgG (H + L) highly cross-adsorbed secondary antibody, Alexa Fluor 488 ThermoFisher Scientific) was used as the second antibody. An All-in-One Fluorescence Microscope BIOREVO BZ-9000 (Keyence, Osaka, Japan) was used as the microscope. ImageJ counted more than 100 spots in the same area in each sample [40, 41].

In assay [7] the test system is total tau. Briefly: Western blot analysis of total tau in Hela cells. Type of assay: cell-based, human. The settings on record: 10 and 30 µM, 24 h, GAPDH normalization. Here is the method: Western blot analysis was then used to confirm the amount of the total tau in Hela cells used for microscopic observation. The lysate of Hela cells, after incubation with compounds (E)-2f and 3a at 10 and 30 µM concentrations, were analyzed by immunoblotting using the same anti-Tau antibody (Figure S42). ImageJ was used to quantify the total tau at each concentration and compared to the total tau level of Hela cells with positive seed (seed+) alone as a control.
Figure 10 Effect of compounds (E)-2f and 3a on Tau levels. HeLa cells transfected with the expression vector of tau 2N4R isoform carrying P301L mutation and incubated with compounds (E)-2f and 3a at 10 and 30 µM concentrations for 24 h. Then Hela cells were lysed, and the lysates were analyzed by Western blotting. The relative amount of total tau expressed in the total cell lysate of Hela cells of each lane was quantified by ImageJ. The total tau level of Hela cells with positive seed (seed+) alone was calculated from total tau after GAPDH normalization and is presented as Control (1.00).
Western blot analysis was performed by lysing Hela cells in PBS/Laemmli sample buffer (1:1) as described previously. […] Chemiluminescence detected immunoreactivity using ImmunoStar LD (FUJIFILM-Wako, Osaka, Japan).
(In general: Immunoblotting shows a protein as a band on a membrane.)

Assay [8] concerns U251. Briefly: MTT assay, cytotoxicity. Format: cell-based. The settings on record: Homo sapiens, U-251, 72 h; read-out: IC50 (µM) after 72 h Drug Treatment, U251. Here is the method:
(§1) The human cervical carcinoma cell line HeLa, obtained from the American Type Culture Collection (ATCC), was cultured in Dulbecco’s modified Eagle’s medium (DMEM) supplemented with 5% heat-inactivated fetal bovine serum (FBS). The human glioblastoma cell line U251 (obtained from ATCC), colon carcinoma cell line HCT116 [provided by the RIKEN BRC through the National Bio-Resource Project of the MEXT/AMED, Japan (RCB2979)], and human melanoma cell line A375, obtained from ATCC, were cultured in DMEM supplemented with 10% heat-inactivated FBS. The human chronic myelogenous leukemia cell line K562 and human peripheral blood mononuclear cells (PBMC), both cells obtained from ATCC, were cultured in RPMI 1640 supplemented with 10% heat-inactivated FBS described previously.
(§2) Cells were seeded in a 24-well plate, and the compounds were added. After incubation for 3 days, a solution (1.1 mg/mL) of 3-(4,5-dimethylthiazol-2-yl)-2,5-diphenyl-2H-tetrazolium bromide (MTT, from DOJINDO Laboratories, Kumamoto, Japan) was added, and MTT assay was performed as previously described.
(In general: Tetrazolium dyes change colour on reduction, which living cells bring about.)

The test system of assay [9] is A375. Briefly: MTT assay, cytotoxicity. Type of assay: cell-based. The following applies: Homo sapiens, A-375, 72 h; read-out: IC50 (µM) after 72 h Drug Treatment, A375. Here is the method: as §1, §2
The subject of assay [10] is K562. In words: MTT assay, cytotoxicity. Type of assay: cell-based. The following applies: Homo sapiens, K562, 72 h; read-out: IC50 (µM) after 72 h Drug Treatment, K562. As for the experimental part: as §1, §2
For assay [11], the system named is HCT-116. Briefly: MTT assay, cytotoxicity. Format: cell-based. The settings on record: Homo sapiens, HCT-116, 72 h; read-out: IC50 (µM) after 72 h Drug Treatment, HCT-116. Here is the method:
as §1, §2

The subject of assay [12] is PBMC. In words: MTT assay, cytotoxicity on normal blood cells. Type of assay: cell-based. The settings on record: Homo sapiens, 72 h, read-out: IC50 (µM) after 72 h Drug Treatment, PBMC. Here is the method: as §1, §2

T1 sequence (P49841 whole entry): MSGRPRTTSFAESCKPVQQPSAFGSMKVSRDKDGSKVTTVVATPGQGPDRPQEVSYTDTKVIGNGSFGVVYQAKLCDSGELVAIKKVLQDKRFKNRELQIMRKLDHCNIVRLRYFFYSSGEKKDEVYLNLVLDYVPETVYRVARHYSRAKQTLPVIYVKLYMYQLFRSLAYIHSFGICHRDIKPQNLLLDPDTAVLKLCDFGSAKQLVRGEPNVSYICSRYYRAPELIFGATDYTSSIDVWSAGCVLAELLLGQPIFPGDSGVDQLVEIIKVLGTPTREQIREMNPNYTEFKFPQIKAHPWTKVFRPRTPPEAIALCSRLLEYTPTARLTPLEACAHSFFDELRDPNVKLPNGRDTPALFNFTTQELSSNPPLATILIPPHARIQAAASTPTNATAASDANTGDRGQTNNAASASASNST

On to `Cn1cc(-c2[nH][nH]c(=O)c2-c2cn(C)c3ccccc23)c2ccccc21` [III], for which the IC50 in assay [1] (in vitro) was 0.034 µM.
Take `COc1ccc2c(c1)c(/C=C1\SC(=O)NC1=O)cn2C` [IV]: the IC50 in assay [1] was 0.89 µM.
Regarding `O=C1Nc2ccccc2/C1=C\c1ccccn1` [(E)-2a, (E)-3-(pyridin-2-ylmethylene)indolin-2-one], the IC50 in assay [1] was 0.00416 µM; in assay [2] it was above 10 µM.
As to `CN(C)c1ccc(/C=C2/C(=O)Nc3ccccc32)cc1` [VII], the results for the Ki in assay [3], in [4] and in [5] were 140 nM, 95 nM and 490 nM, respectively.
With `O=C1Nc2cc(Cl)ccc2/C1=C\c1ccccn1` [(E)-2c, (E)-6-chloro-3-(pyridin-2-ylmethylene)indolin-2-one], the inhibition at 10 µM in [2] was found to be 45%. The IC50 in [2] (read-out: IC50 (µM) GSK3β) was above 10 µM.
For the compound `O=C1Nc2cc(F)ccc2/C1=C\c1ccccn1` [(E)-2e, (E)-6-fluoro-3-(pyridin-2-ylmethylene)indolin-2-one], the inhibition at 10 µM in [2] is below 30%. The IC50 in assay [2] (read-out: IC50 (µM) GSK3β) was above 10 µM.
As to `O=C1Nc2ncccc2/C1=C\c1ccncc1` [(E)-3d], in assay [2] (read-out: IC50 (µM) GSK3β), the IC50 was determined as 5.9 µM.
Consider `CN(C)c1ccc(C=C2C(=O)Nc3ncccc32)cc1` (mixture of isomers) [Compound 3a, (E/Z)-3-(4-(dimethylamino)benzylidene)-1,3-dihydro-2H-pyrrolo [2,3-b]pyridin-2-one], for which the anti-tau aggregation effect entry in [6] (30 µM) is given as “completely protected Hela cells from tau aggregates”. Further, the “inhibitory activity against tau aggregation” value in assay [6] was “concentration-dependent inhibitory activity”. Besides, in assay [7], the “total tau level compared to Hela cells with seed+ alone” value is “little or no difference; also recorded: minimal effect”. The 50% inhibitory concentration (IC50) in assay [8] was 10.3 µM; in assay [9], above 100 µM; in assay [10], 4.7 µM; in assay [11], 9.8 µM; in assay [12], 94.5 µM.
Consider `O=C1Nc2ncccc2/C1=C\c1ccccn1` [(E)-2f, (E)-3-(pyridin-2-ylmethylene)-1,3-dihydro-2H-pyrrolo [2,3-b]pyridin-2-one], for which the anti-tau aggregation effect entry in assay [6] (1 µM) is “no efficacy”; in assay [6] (3 µM), “moderate efficacy”; in [6] (10 µM) it was “significant anti-aggregation effect”; in assay [6] (30 µM), “completely protected Hela cells from tau aggregates”. The “inhibitory activity against tau aggregation” value in assay [6] is “pronounced tau anti-aggregation effect; also recorded: concentration-dependent inhibitory activity”. In addition, the “total tau level compared to Hela cells with seed+ alone” value in assay [7] is reported as “little or no difference; also recorded: minimal effect”. Further, the IC50 in assay [8] was 28.2 µM; in assay [9] it was 14 µM; in [10], 13.8 µM; in [11], 12.8 µM; in assay [2] (read-out: IC50 (µM) GSK3β) it was 1.7 µM; in [12], above 300 µM. Besides, the inhibition at 10 µM in assay [2] worked out at 76.4%.
Turning to `CN(C)c1ccnc(/C=C2/C(=O)Nc3ncccc32)c1` [(E)-3c], the IC50 in assay [2] (read-out: IC50 (µM) GSK3β) was 3.2 µM.
On the same count and under the same terms, the result for `CCN(CC)c1ccc(/C=C2\C(=O)Nc3ncccc32)cc1` [(Z)-3b] reads 3 µM; that for `O=C1Nc2ncccc2/C1=C/c1ccncc1` [(Z)-3d], 5.9 µM.
Regarding `O=C1Nc2ccc(F)cc2/C1=C\c1ccccn1` [(E)-2d, (E)-5-fluoro-3-(pyridin-2-ylmethylene)indolin-2-one], the inhibition at 10 µM in [2] was below 30%. In addition, in assay [2] (read-out: IC50 (µM) GSK3β), the IC50 is above 10 µM.
For `CN(C)c1ccc(/C=C2\C(=O)Nc3ncccc32)cc1` [(Z)-3a], the IC50 in assay [2] (read-out: IC50 (µM) GSK3β) was 1.9 µM.
On the same count and under the same terms, the result for `O=C1Nc2ccc(Cl)cc2/C1=C\c1ccccn1` [(E)-2b, (E)-5-chloro-3-(pyridin-2-ylmethylene)indolin-2-one] reads above 10 µM.
Consider `O=C1NC(=S)S/C1=C\c1cccc(-c2ccc3c(c2)OCO3)n1` [V], for which, in [1], the IC50 was 1.6 µM.
In the case of `CCN(CC)c1ccc(/C=C2/C(=O)Nc3ncccc32)cc1` [(E)-3b], in assay [2] (read-out: IC50 (µM) GSK3β), the IC50 is 3 µM.
For the compound `Clc1cc(-c2c[nH]c3ncccc23)cc(NC2CCCCC2)n1` [Native ligand], the Ki in assay [1] was 0.058 µM.

A word on the IC50: it is the concentration needed to halve the response being measured. The Ki is a dissociation constant, usually derived from enzyme kinetics or from competition with a known ligand. As a reminder, the inhibition is the change of the read-out against control, counted positive when it falls.
